Our source for the Ki values is patent US20100093702A1, “METHYLENE AMINES OF THIENO[2,3-d]PYRIMIDINE AND THEIR USE AS ADENOSINE A2a RECEPTOR ANTAGONISTS” (priority 2008, published 2010).

Assay [1] concerns the target T1, human adenosine A2a receptor (Homo sapiens, UniProt P29274).
T1 construct: expressed in transfected cells; host or cells: CHO-K1
The assay is described as follows: Adenosine A2a Receptor Functional Assay (A2AGAL2). To be noted: CHO-K1 cells, cAMP inducible beta-galactosidase reporter, 15 nM NECA agonist challenge. The assay is classed as cell-based. In short, it runs like this: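 Antagonist mode in CHO-K1 cells expressing human A2a with a cAMP-inducible β-galactosidase reporter (10K cells/well, cultured 2 days). 11-point compound curves preincubated ~15 min at room temperature in Ham's F-12/0.1% BSA, then 15 nM NECA challenge, 5.5–6 h at 37 °C. Colorimetric β-gal read at 405 nm; IC/EC50 fitted.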

Assay [2] has as its target T2, human A2a adenosine receptor (Homo sapiens, UniProt P29274).
T2 construct: purchased PerkinElmer RB-HA2a; host or cells: HEK293
Kind of assay: Ligand Binding Assay for Adenosine A2a Receptor (A2A-B). To be noted: HEK293 plasma membrane, radioligand [3H]CGS21680. How it is done:
Ligand Binding Assay for Adenosine A2a Receptor
Ligand binding assay of adenosine A2a receptor was performed using plasma membrane of HEK293 cells containing human A2a adenosine receptor (PerkinElmer, RB-HA2a) and radioligand [^3H]CGS21680 (PerkinElmer, NET 1021). Assay was set up in 96-well polypropylene plate in total volume of 200 μL by sequentially adding 20 μL 1:20 diluted membrane, 130 μL assay buffer (50 mM Tris.HCl, pH7.4 10 mM MgCl2, 1 mM EDTA) containing [^3H] CGS21680, 50 μL diluted compound (4×) or vehicle control in assay buffer. Nonspecific binding was determined by […] NECA. Reaction was carried out at room temperature for 2 hours before filtering through 96-well GF/C filter plate pre-soaked in 50 mM Tris.HCl, pH7.4 containing 0.3% polyethylenimine. Plates were then washed 5 times with cold 50 mM Tris.HCl, pH7.4, dried and sealed at the bottom. Microscintillation fluid 30 μL was added to each well and the top sealed. Plates were counted on Packard Topcount for [^3H]. Data was analyzed in Microsoft Excel and GraphPad Prism programs. (Varani, K.; Gessi, S.; Dalpiaz, A.; Borea, P. A. British Journal of Pharmacology, 1996, 117, 1693)

In assay [3] the target is T3, human adenosine A1 receptor (Homo sapiens, UniProt P30542).
T3 construct: expressed in transfected cells; host or cells: CHO-K1
T3 sequence (P30542 1-326): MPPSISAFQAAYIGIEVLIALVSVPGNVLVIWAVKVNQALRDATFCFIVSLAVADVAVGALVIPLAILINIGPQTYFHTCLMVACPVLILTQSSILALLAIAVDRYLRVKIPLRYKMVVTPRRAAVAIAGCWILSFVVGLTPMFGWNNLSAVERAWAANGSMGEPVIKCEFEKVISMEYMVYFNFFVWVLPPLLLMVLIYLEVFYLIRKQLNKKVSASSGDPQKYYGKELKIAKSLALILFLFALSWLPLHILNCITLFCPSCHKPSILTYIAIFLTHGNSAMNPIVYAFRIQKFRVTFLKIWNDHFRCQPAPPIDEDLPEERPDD
Kind of assay: Adenosine A1 Receptor Functional Assay (A1GAL2). The assay is classed as cell-based. The following applies: CHO-K1 cells, cAMP inducible beta-galactosidase reporter, 4 nM r-PIA/1 uM Forskolin challenge. Put shortly: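 CHO-K1 cells expressing the receptor with a cAMP-inducible β-galactosidase reporter were preincubated with compound (11-point curves) about 15 min at room temperature, then challenged with r-PIA (4 nM)/forskolin (1 µM) for 5.5–6 h at 37 °C. Lysates were read colorimetrically at 405 nm, and IC/EC50 was obtained by curve fitting.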

T1 sequence (P29274 whole entry): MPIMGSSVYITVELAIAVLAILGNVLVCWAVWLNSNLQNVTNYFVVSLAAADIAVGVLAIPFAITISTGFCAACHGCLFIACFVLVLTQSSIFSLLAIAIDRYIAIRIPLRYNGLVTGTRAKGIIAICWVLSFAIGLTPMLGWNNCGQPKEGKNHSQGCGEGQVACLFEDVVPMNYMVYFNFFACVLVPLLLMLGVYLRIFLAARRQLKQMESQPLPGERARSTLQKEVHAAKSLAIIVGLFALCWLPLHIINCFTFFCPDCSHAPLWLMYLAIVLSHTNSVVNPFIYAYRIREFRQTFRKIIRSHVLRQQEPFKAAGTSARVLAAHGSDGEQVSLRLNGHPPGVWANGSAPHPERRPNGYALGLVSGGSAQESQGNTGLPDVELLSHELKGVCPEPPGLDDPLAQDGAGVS
T2 sequence (P29274 whole entry): as above

`Nc1nc(-c2ccc(Br)o2)nc2sc(CN3CCCC3)cc12` [Example 35, 2-(5-Bromo-furan-2-yl)-6-pyrrolidin-1-ylmethyl-thieno[2,3-d]pyrimidin-4-ylamine]: the values for the Ki in assay [1], in assay [2] and in assay [3] were 22 nM, 15 nM and 800 nM, respectively.

`Cc1ccc(-c2nc(N)c3cc(CN4CCOCC4)sc3n2)o1` [Example 38, 2-(5-Methyl-furan-2-yl)-6-morpholin-4-ylmethyl-thieno[2,3-d]pyrimidin-4-ylamine]: the Ki in assay [1] was 31.9 nM; in assay [2], 32.7 nM; in assay [3], 1050 nM.

Consider `Cc1ccc(-c2nc(N)c3cc(CN4CCCC4)sc3n2)o1` [Example 39, 2-(5-Methyl-furan-2-yl)-6-pyrrolidin-1-ylmethyl-thieno[2,3-d]pyrimidin-4-ylamine], for which the values for the Ki in assay [1], in assay [2] and in assay [3] were 25.9 nM, 10.9 nM and 620 nM, respectively.

In the case of `Cc1ccc(-c2nc(N)c3cc(CN4CCc5ccccc5C4)sc3n2)o1` [Example 41, 6-(3,4-Dihydro-1H-isoquinolin-2-ylmethyl)-2-(5-methyl-furan-2-yl)-thieno[2,3-d]pyrimidin-4-ylamine], the Ki in assay [1] was determined as 202 nM; in assay [2] it was 187 nM; in assay [3], 3320 nM.

On to `Nc1nc(-c2ccco2)nc2sc(CN3CCOCC3)cc12` [Example 42, 2-Furan-2-yl-6-morpholin-4-ylmethyl-thieno[2,3-d]pyrimidin-4-ylamine], for which the Ki in assay [1] worked out at 53 nM; in assay [2], 88.1 nM; in assay [3], 18200 nM.

Regarding `C[C@@H]1CCC[C@H](C)N1Cc1cc2c(N)nc(-c3ccco3)nc2s1` [Example 44, 6-(2,6-Dimethyl-piperidin-1-ylmethyl)-2-furan-2-yl-thieno[2,3-d]pyrimidin-4-ylamine], the results for the Ki in assay [1], in assay [2] and in assay [3] were 5.65 nM, 1.4 nM and 99.8 nM, respectively.

Consider `Nc1nc(-c2ccco2)nc2sc(CN3CCC(=O)CC3)cc12` [Example 45, 1-(4-Amino-2-furan-2-yl-thieno[2,3-d]pyrimidin-6-ylmethyl)-piperidin-4-one], for which the figures for the Ki in assay [1], in assay [2] and in assay [3] were 229 nM, 190 nM and 2720 nM, respectively.

In the case of `CN(C)Cc1cc2c(N)nc(-c3ccco3)nc2s1` [Example 46, 6-Dimethylaminomethyl-2-furan-2-yl-thieno[2,3-d]pyrimidin-4-ylamine], the Ki in assay [1] is 143 nM; in assay [2] it was 89 nM; in assay [3], 3550 nM.

In the case of `Nc1nc(-c2ccco2)nc2sc(CN3CCC(F)C3)cc12` (stereo not drawn) [Example 51, 6-(3-Fluoro-pyrrolidin-1-ylmethyl)-2-furan-2-yl-thieno[2,3-d]pyrimidin-4-ylamine], the results for the Ki in assay [1], in assay [2] and in assay [3] were 9.8 nM, 5.9 nM and 1340 nM, respectively.

Turning to `Nc1nc(-c2ccco2)nc2sc(CN3CCC(O)CC3)cc12` [Example 52, 1-(4-Amino-2-furan-2-yl-thieno[2,3-d]pyrimidin-6-ylmethyl)-piperidin-4-ol], the Ki in assay [1] was determined as 297 nM; in assay [2], 220 nM; in assay [3], 4000 nM.

Regarding `Nc1nc(-c2ccco2)nc2sc(CN3CC[C@H](F)C3)cc12` [Example 53, 6-(3-Fluoro-pyrrolidin-1-ylmethyl)-2-furan-2-yl-thieno[2,3-d]pyrimidin-4-ylamine], the Ki in assay [1] stood at 12.3 nM; in assay [2], 14 nM; in assay [3] it was 656 nM.

On to `Nc1nc(-c2ccco2)nc2sc(CN3CC[C@@H](F)C3)cc12` [Example 54, 6-(3-Fluoro-pyrrolidin-1-ylmethyl)-2-furan-2-yl-thieno[2,3-d]pyrimidin-4-ylamine], for which the Ki in assay [1] is 11.5 nM; in assay [2], 8.2 nM; in assay [3], 878 nM.

As to `Nc1nc(-c2ccco2)nc2sc(CN3CCC(F)(F)CC3)cc12` [Example 56, 6-(4,4-Difluoro-piperidin-1-ylmethyl)-2-furan-2-yl-thieno[2,3-d]pyrimidin-4-ylamine], the figures for the Ki in assay [1], in assay [2] and in assay [3] were 48.7 nM, 21 nM and 2230 nM, respectively.

`Nc1nc(-c2ccco2)nc2sc(CN3CCCC(F)(F)C3)cc12` [Example 57, 6-(3,3-Difluoro-piperidin-1-ylmethyl)-2-furan-2-yl-thieno[2,3-d]pyrimidin-4-ylamine]: the results for the Ki in assay [1], in assay [2] and in assay [3] were 6.62 nM, 8.4 nM and 294 nM, respectively.

With `N#Cc1cccc(-c2nc(N)c3cc(CN4CCCC(F)(F)C4)sc3n2)c1` [Example 62, 3-[4-Amino-6-(3,3-difluoro-piperidin-1-ylmethyl)-thieno[2,3-d]pyrimidin-2-yl]-benzonitrile], the Ki in assay [1] was 50.3 nM; in assay [2], 384 nM; in assay [3], 1180 nM.

As to `N#Cc1ccc(-c2nc(N)c3cc(CN4CC=CCC4)sc3n2)cc1` [Example 63, 4-[4-Amino-6-(3,6-dihydro-2H-pyridin-1-ylmethyl)-thieno[2,3-d]pyrimidin-2-yl]-benzonitrile], the Ki in assay [1] turned out to be 178 nM; in assay [2], 150 nM; in assay [3], 1630 nM.

`N#Cc1cccc(-c2nc(N)c3cc(CN4CC=CC4)sc3n2)c1` [Example 64, 3-[4-Amino-6-(2,5-dihydro-pyrrol-1-ylmethyl)-thieno[2,3-d]pyrimidin-2-yl]-benzonitrile]: the Ki in assay [1] is 83.5 nM; in assay [2] it was 77 nM; in assay [3] it was 2070 nM.

`N#Cc1cccc(-c2nc(N)c3cc(CN4CCCC4)sc3n2)c1` [Example 65, 3-(4-Amino-6-pyrrolidin-1-ylmethyl-thieno[2,3-d]pyrimidin-2-yl)-benzonitrile]: the Ki in assay [1] is above 10000 nM; in assay [2], 41.8 nM; in assay [3], 129 nM.

With `N#Cc1cccc(-c2nc(N)c3cc(CN4CC=CCC4)sc3n2)c1` [Example 68, 3-[4-Amino-6-(3,6-dihydro-2H-pyridin-1-ylmethyl)-thieno[2,3-d]pyrimidin-2-yl]-benzonitrile], the Ki is 13.3 nM in assay [1], 378 nM in assay [2] and 212 nM in assay [3].

For the molecule `Nc1nc(-c2cocn2)nc2sc(CN3CC=CC3)cc12` [Example 69, 6-(2,5-Dihydro-pyrrol-1-ylmethyl)-2-oxazol-4-yl-thieno[2,3-d]pyrimidin-4-ylamine], the Ki worked out at 238 nM in assay [1], 1020 nM in assay [2] and 3890 nM in assay [3].

Turning to `Nc1nc(-c2cocn2)nc2sc(CN3CC=CCC3)cc12` [Example 70, 6-(3,6-Dihydro-2H-pyridin-1-ylmethyl)-2-oxazol-4-yl-thieno[2,3-d]pyrimidin-4-ylamine], the figures for the Ki in assay [1], in assay [2] and in assay [3] were 240 nM, 393 nM and 2960 nM, respectively.

`N#Cc1ccccc1-c1nc(N)c2cc(CN3CCC(F)CC3)sc2n1` [Example 73, 2-[4-Amino-6-(4-fluoro-piperidin-1-ylmethyl)-thieno[2,3-d]pyrimidin-2-yl]-benzonitrile]: the Ki in assay [1] was found to be 1030 nM; in assay [2], 2020 nM; in assay [3] it was 5050 nM.

For `N#Cc1cccc(-c2nc(N)c3cc(CN4CCOCC4)sc3n2)c1` [Example 74, 3-(4-Amino-6-morpholin-4-ylmethyl-thieno[2,3-d]pyrimidin-2-yl)-benzonitrile], the Ki in assay [1] amounted to 35.9 nM; in assay [2], 93.2 nM; in assay [3], 1010 nM.

On to `N#Cc1cccc(-c2nc(N)c3cc(CN4C5CCC4CC5)sc3n2)c1` [Example 77, 3-[4-Amino-6-(7-aza-bicyclo[2.2.1]hept-7-ylmethyl)-thieno[2,3-d]pyrimidin-2-yl]-benzonitrile], for which the Ki in assay [1] amounted to 95 nM; in assay [2] it was 74.9 nM; in assay [3], 2170 nM.

As for `Cn1cccc1-c1nc(N)c2cc(CN3CCC(F)CC3)sc2n1` [Example 78, 6-(4-Fluoro-piperidin-1-ylmethyl)-2-(1-methyl-1H-pyrrol-2-yl)-thieno[2,3-d]pyrimidin-4-ylamine], the Ki worked out at 634 nM in assay [1], 733 nM in assay [2] and 1600 nM in assay [3].

For orientation: Ki means a measure of affinity in units of concentration, obtained from inhibition or displacement. A higher Ki goes with lower affinity.
